According to US20230265104A1, “NOVEL HETEROCYCLIC COMPOUNDS” (PRISM BIOLAB CO., LTD., priority 2020, published 2023):
pIC50: −log10 of the molar value.

System: PANC-1 (human pancreatic cancer-derived cell line)
Assay: MTS assay on Panc-1 (human pancreas carcinoma cell line)
Type: cell-based
Conditions: 144 h; for inhibition at 10 µM: read-out: Growth inhibition (%) 10 μM; for pIC50: PANC-1, MTS method, cell survival 6 days after exposure, 4-parameter logistic fit; for inhibition at 0.625 µM: read-out: Growth inhibition (%) 0.625 μM
Outline: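 Viability measured by MTS 6 days after treating human pancreatic carcinoma PANC-1 cells with compound serially diluted 2-fold in DMSO; absorbance 492–630 nm normalized to solvent control. Triplicate measurements averaged and fitted to a 4-parameter logistic curve.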

Row | Structure (SMILES) | inhibition at 10 µM (PANC-1, MTS, 6 days) [%] | pIC50 | also measured
1 | CC(C)C[C@H]1ON(C(=O)/C=C/c2cscn2)[C@H]2CN(C3CCN(C)CC3)C(=O)[C@H](CC(C)C)N2C1=O [ID-54, (3R,6S,9aS)-3,6-diisobutyl-8-(1-methylpiperidin-4-yl)-1-((E)-3-(thiazol-4-yl)acryloyl)tetrahydropyrazino[2,1-c] [1,2,4]oxadiazine-4,7(3H,6H)-dione] | 57 | – | –
2 | CC(C)C[C@H]1ON(C(=O)/C=C/c2nc(C#CCCCCCO)cs2)[C@H]2CN(C3CN(CCCCO)C3)C(=O)[C@H](CC(C)(C)C)N2C1=O [ID-91, (3R,6S,9aS)-8-(1-(4-hydroxybutyl)azetidin-3-yl)-1-((E)-3-(4-(7-hydroxyhept-1-yn-1-yl)thiazol-2-yl)acryloyl)-3-isobutyl-6-neopentyltetrahydropyrazino[2,1-c][1,2,4]oxadiazine-4,7(3H,6H)-dione] | – | 6.92 | –
3 | CC(C)(C)C[C@H]1C(=O)N(CC2CCCCC2)C[C@@H]2N(C(=O)/C=C/c3cnc4ccccc4n3)O[C@H](CC3CCCCC3)C(=O)N21 [ID-25, (3R,6S,9aS)-3,8-bis(cyclohexylmethyl)-6-neopentyl-1-((E)-3-(quinoxalin-2-yl)acryloyl)tetrahydropyrazino[2,1-c] [1,2,4]oxadiazine-4,7(3H,6H)-dione] | – | – | inhibition at 0.625 µM (PANC-1, MTS, 6 days): 4.7%; inhibition at 1 µM (PANC-1, MTS, 6 days, 1 μM, read-out: Growth inhibition (%) 1 μM): 6%; inhibition at 30 µM (PANC-1, MTS, 6 days, 30 μM, read-out: Growth inhibition (%) 30 μM): 98.5%
4 | CC(C)C[C@H]1ON(C(=O)/C=C/c2ccccn2)[C@H]2CN(C3CCC(N)CC3)C(=O)[C@H](CC(C)C)N2C1=O (stereo partly drawn) [ID-68, (3R,6S,9aS)-8-(4-aminocyclohexyl)-3,6-diisobutyl-1-((E)-3-(pyridin-2-yl)acryloyl)tetrahydropyrazino[2,1-c][1,2,4]oxadiazine-4,7(3H,6H)-dione] | – | 5.55 | –
5 | CC(C)C[C@H]1ON(C(=O)/C=C/c2nc3ccccc3o2)[C@H]2CN(C3CCN(C)CC3)C(=O)[C@H](CC(C)C)N2C1=O [ID-46, (3R, 6S, 9aS)-1-((E)-3-(benzo[d]oxazol-2-yl)acryloyl)-3,6-diisobutyl-8-(1-methylpiperidin-4-yl)tetrahydropyrazino[2,1-c][1,2,4]oxadiazine-4,7(3H,6H)-dione] | 99.1 | 5.85 | –
6 | CC(C)C[C@H]1ON(C(=O)/C=C/c2ccccn2)[C@H]2CN(C3CCN(C4CCN(C(C)C)CC4)CC3)C(=O)[C@H](CC(C)C)N2C1=O [ID-40, (3R,6S,9aS)-3,6-diisobutyl-8-(1′-isopropyl-[1,4′-bipiperidin]-4-yl)-1-((E)-3-(pyridin-2-yl)acryloyl)tetrahydropyrazino[2,1-c][1,2,4]oxadiazine-4,7(3H,6H)-dione] | 102 | 5.40 | –
7 | CC(C)C[C@@H]1ON(C(=O)/C=C/c2nc3ccccc3s2)[C@@H]2CN([C@@H]3CCN(CCCCO)C3)C(=O)[C@H](CC(C)(C)C)N2C1=O [ID-95, (3S,6S,9aR)-1-((E)-3-(benzo[d]thiazol-2-yl)acryloyl)-8-((R)-1-(4-hydroxybutyl)pyrrolidin-3-yl)-3-isobutyl-6-neopentyltetrahydropyrazino[2,1-c][1,2,4]oxadiazine-4,7(3H,6H)-dione] | – | 5.85 | –
8 | CC(C)C[C@H]1ON(C(=O)/C=C/c2ccccn2)[C@H]2CN(C3CCCN(C)CC3)C(=O)[C@H](CC(C)C)N2C1=O (stereo partly drawn) [ID-67, (3R,6S,9aS)-3,6-diisobutyl-8-(1-methylazepan-4-yl)-1-((E)-3-(pyridin-2-yl)acryloyl)tetrahydropyrazino[2,1-c][1,2,4]oxadiazine-4,7(3H,6H)-dione] | 100 | 5.48 | –
9 | CC(=O)N1CCC(N2C[C@@H]3N(C(=O)/C=C/c4nc5ccccc5s4)O[C@H](CC(C)C)C(=O)N3[C@@H](CC(C)C)C2=O)CC1 [ID-45, (3R,6S,9aS)-8-(1-acetylpiperidin-4-yl)-1-((E)-3-(benzo[d]thiazol-2-yl)acryloyl)-3,6-diisobutyltetrahydropyrazino[2,1-c][1,2,4]oxadiazine-4,7(3H,6H)-dione] | 101 | 6.09 | –
10 | CC(C)C[C@H]1ON(C(=O)/C=C/c2ccc(-c3cccc(O)c3)cn2)[C@H]2CN(C3CCN(CCCCO)CC3)C(=O)[C@H](CC(C)(C)C)N2C1=O [ID-80, (3R,6S,9aS)-8-(1-(4-hydroxybutyl)piperidin-4-yl)-1-((E)-3-(5-(3-hydroxyphenyl)pyridin-2-yl)acryloyl)-3-isobutyl-6-neopentyltetrahydropyrazino[2,1-c][1,2,4]oxadiazine-4,7(3H,6H)-dione] | – | – | inhibition at 0.625 µM (PANC-1, MTS, 6 days): 63.2%
11 | CC(C)C[C@H]1ON(C(=O)/C=C/c2nc3ccccc3s2)[C@H]2CN(C3CCN(C(C)C)CC3)C(=O)[C@H](CC(C)(C)C)N2C1=O [ID-73, (3R,6S,9aS)-1-((E)-3-(benzo[d]thiazol-2-yl)acryloyl)-3-isobutyl-8-(1-isopropylpiperidin-4-yl)-6-neopentyltetrahydropyrazino[2,1-c][1,2,4]oxadiazine-4,7(3H,6H)-dione] | – | 6.85 | inhibition at 0.3125 µM (PANC-1, MTS, 6 days, 0.3125 μM, read-out: Growth inhibition (%) 0.3125 μM): 88.1%
12 | CC(C)C[C@H]1ON(C(=O)/C=C/c2nc3cc(O)ccc3s2)[C@H]2CN([C@@H]3CCN(CCCCO)C3)C(=O)[C@H](CC(C)(C)C)N2C1=O [ID-12, (3R,6S,9aS)-1-((E)-3-(5-hydroxybenzo[d]thiazol-2-yl)acryloyl)-8-((R)-1-(4-hydroxybutyl)pyrrolidin-3-yl)-3-isobutyl-6-neopentyltetrahydropyrazino[2,1-c][1,2,4]oxadiazine-4,7(3H,6H)-dione] | – | 7.22 | –
